From ChEMBL document CHEMBL1134888, “Preliminary structure-antiangiogenic activity relationships of 4-senecioyloxymethyl-6,7-dimethoxycoumarin” (Bioorg Med Chem Lett, 2002)
≈ marks a conversion by molar mass, not a printed value.

How the values were obtained:
[1] = test system: HCT-116; assay: In vitro inhibition of HCT116 (human colon) tumor cell growth.; format: functional, cell-based
[2] = test system: B16; assay: In vitro inhibition of B16 (murine melanoma) tumor cell growth.; settings: Mus musculus
[3] = test system: HUVEC (Homo sapiens); assay: Inhibitory percentage in HUVEC tube formation assay at a concentration of 3 ug/mL; Inactive
[4] = test system: HUVEC (Homo sapiens); assay: Inhibitory percentage in HUVEC tube formation assay at a concentration of 1 ug/mL (toxic)
[5] = test system: HUVEC (Homo sapiens); assay: Inhibitory percentage in HUVEC tube formation assay at a concentration of 3 ug/mL (toxic)
[6] = test system: HCT-116; assay: Concentration required for 50% reduction in HCT116 tumor cell growth (Human colon) was measured; NA denotes […]; format: functional, cell-based
[7] = test system: B16; assay: Concentration required for 50% reduction in B16 tumor cell growth (murine melanoma) was measured; NA denotes […]

Row | Compound | IC50 [1] | IC50 [2] | also measured
1 | CC(C)=CC(=O)OCc1cc(=O)oc2cc3ccccc3cc12 | > 10 µg/mL | > 10 µg/mL | –
2 | COc1cc2oc(=O)cc(COC(=O)/C=C/c3cc(OC)c(OC)c(OC)c3)c2cc1OC | 8.31 µg/mL (≈ 18.2 µM) | 6.74 µg/mL (≈ 14.8 µM) | –
3 | CC(C)=CC(=O)OCc1cc(=O)oc2ccc(Cl)cc12 | > 10 µg/mL | > 10 µg/mL | –
4 | COc1ccc(/C=C/C(=O)OCc2cc(O)nc3cc(OC)c(OC)cc23)cc1 | > 10 µg/mL | > 10 µg/mL | –
5 | COc1ccc2oc(=O)cc(COC(=O)C=C(C)C)c2c1 | > 10 µg/mL | > 10 µg/mL | inhibition at 3 µg/mL [3]: < 10%
6 | C=CC(=O)OCc1cc(=O)oc2cc(OC)c(OC)cc12 | > 10 µg/mL | > 10 µg/mL | inhibition at 3 µg/mL [3]: < 10%
7 | COc1cc2oc(=O)cc(COC(=O)C=C(C)C)c2cc1OC | > 10 µg/mL | > 10 µg/mL | –
8 | COc1ccc2c(COC(=O)C=C(C)C)cc(=O)oc2c1 | > 10 µg/mL | > 10 µg/mL | inhibition at 3 µg/mL [3]: < 10%
9 | CC(C)=CC(=O)OCc1cc(=O)oc2cc3c(cc12)OCO3 | > 10 µg/mL | > 10 µg/mL | –
10 | COc1cccc2c1C(=O)c1c(O)c3c(c(O)c1C2=O)C[C@@](O)(C(=O)CO)C[C@@H]3O[C@H]1C[C@H](N)[C@H](O)[C@H](C)O1 [DOXORUBICIN] | 0.11 µg/mL (≈ 0.202 µM) | 0.09 µg/mL (≈ 0.166 µM) | –
11 | Cc1ccc(C(=O)Nc2ccc(S(=O)(=O)O)c3cc(S(=O)(=O)O)cc(S(=O)(=O)O)c23)cc1NC(=O)c1cccc(NC(=O)Nc2cccc(C(=O)Nc3cc(C(=O)Nc4ccc(S(=O)(=O)O)c5cc(S(=O)(=O)O)cc(S(=O)(=O)O)c45)ccc3C)c2)c1 [SURAMIN] | – | – | IC50 [6]: Not Active; IC50 [7]: Not Active

The next lines start with results.

Row | IC50 [1] | IC50 [2] | Compound | also measured
12 | > 10 µg/mL | > 10 µg/mL | COc1cc2oc(=O)cc(COC(=O)/C=C/c3ccc(Cl)cc3)c2cc1OC | –
13 | > 10 µg/mL | > 10 µg/mL | C/C=C/C(=O)OCc1cc(=O)oc2cc(OC)c(OC)cc12 | inhibition at 3 µg/mL [3]: < 10%
14 | > 10 µg/mL | > 10 µg/mL | COc1cc2oc(=O)cc(COC(=O)/C=C/c3ccc(N)cc3)c2cc1OC | –
15 | 5.21 µg/mL (≈ 13.6 µM) | 4.15 µg/mL (≈ 10.9 µM) | COc1cc2oc(=O)cc(COC(=O)/C=C/c3ccc(O)cc3)c2cc1OC | –
16 | 2.43 µg/mL | 1.27 µg/mL | Br.COc1ccc(/C=C/C(=O)OCc2cc(=O)oc3cc(OC)c(OC)cc23)cn1 | –
17 | > 10 µg/mL | > 10 µg/mL | COc1cc2oc(=O)cc(COC(=O)/C=C/c3ccc(OCCN(C)C)cc3)c2cc1OC.Cl | –
18 | > 10 µg/mL | > 10 µg/mL | COc1cc2oc(=O)cc(COC(=O)/C=C/c3ccccc3)c2cc1OC | –
19 | 1.02 µg/mL (≈ 2.57 µM) | 0.96 µg/mL (≈ 2.42 µM) | COc1ccc(/C=C/C(=O)OCc2cc(=O)oc3cc(OC)c(OC)cc23)cc1 | inhibition at 1 µg/mL [4]: 100%
20 | 3.41 µg/mL (≈ 8.27 µM) | 3 µg/mL (≈ 7.27 µM) | COc1ccc(/C=C/C(=O)OCc2cc(=O)oc3cc(OC)c(OC)cc23)cc1O | inhibition at 3 µg/mL [5]: 35.5%
